Where “and” joins values, the source holds several entries; their conditions need not be identical. Equal entries are not always repeated.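 Following 48 hours of exposure in 96-well plates, responses at five concentrations were used to interpolate endpoints linearly. Here, GI50 denotes the concentration required for 50% inhibition of growth. TGI: total growth inhibition.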
How the values were obtained:
Assay in all cases: NCI tumour cell line growth inhibition, 48 h
HOP-18 NSCLC = tested on: HOP-18 NSCLC
XF 498 CNS = tested on: XF 498 CNS
P388/ADR leukemia = tested on: P388/ADR leukemia
DMS 273 small cell lung = tested on: DMS 273 small cell lung
RXF-631 renal = tested on: RXF-631 renal
SN12K1 renal = tested on: SN12K1 renal
P388 leukemia = tested on: P388 leukemia
KM20L2 colon = tested on: KM20L2 colon
DMS 114 small cell lung = tested on: DMS 114 small cell lung
SNB-78 CNS = tested on: SNB-78 CNS
LXFL 529 NSCLC = tested on: LXFL 529 NSCLC
DLD-1 colon = tested on: DLD-1 colon

SMILES	GI50 (HOP-18 NSCLC) [µM]	TGI (HOP-18 NSCLC) [µM]	GI50 (XF 498 CNS) [µM]	TGI (P388/ADR leukemia) [µM]	GI50 (DMS 273 small cell lung) [µM]	TGI (DMS 273 small cell lung)	TGI (RXF-631 renal) [µM]	TGI (SN12K1 renal) [µM]	TGI (P388 leukemia) [µM]	GI50 (KM20L2 colon) [µM]	TGI (KM20L2 colon) [µM]	GI50 (DMS 114 small cell lung) [µM]	TGI (DMS 114 small cell lung)	GI50 (SNB-78 CNS) [µM]	TGI (SNB-78 CNS) [µM]	TGI (XF 498 CNS) [µM]	TGI (LXFL 529 NSCLC) [µM]	TGI (DLD-1 colon) [µM]
CC[C@@]1(O)C(=O)OCc2c1cc1n(c2=O)Cc2cc3c(CN(C)C)c(O)ccc3nc2-1	0.132	89	0.585	2.77	0.0372	1.09 µM and 0.609 µM	30.1	1.19	2.66	2.22	8.27	< 0.0351	0.691 µM and 0.162 µM	0.0867	2.49			
OC(c1ccccc1)C1CC2C=CC1C2 (configuration not stated)						> 100 µM	> 100						> 100 µM		> 100	> 100	> 100	> 100
C1=Nc2ccccc2Cn2nncc21		> 100									> 100					> 100	> 100	> 100
CC(C)NC(=O)OCc1nnn2c1CCC2											> 100				> 100	> 100	> 100	> 100
